In patent US20250154169A1, “COMPOUNDS AND METHODS FOR MODULATING SPLICING” (REMIX THERAPEUTICS INC., priority 2021, published 2025):
Like-named read-outs stand apart in the source and are kept apart here.

Key:
MYB mRNA = assay: Splicing RT-qPCR assay, MYB canonical (CJ) and alternative (AJ) junction mRNA; assay type: cell-based, human; settings: Homo sapiens; for AC50: read-out: MYB AJ (AC50, increase in alternative junction mRNA)
Summary of the method: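 Canonical (CJ) and alternative-exon (AJ) junction mRNAs quantified by one-step RT-qPCR in cell lysates, normalized to housekeeping PPIA for A673 and GAPDH or GUSB for K562. Cells were exposed 24 h at 37 °C to 11-point 3-fold compound series from 10 uM final, with DMSO at or below 0.25%.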

HTT = assay: Protein abundance, HiBit-assay system (Promega), HTT; assay type: cell-based; settings: Table 6; HiBiT-modified K562 cells, 24 hours
Excerpt: In some embodiments, a compound of Formula (I) or (II) or a pharmaceutically acceptable salt thereof, e.g., as described herein, modulates the expression of a target protein (e.g., HTT or MYB) in a reference cell or sample. In an embodiment, a compound of Formula (I) or (II) or a pharmaceutically acceptable salt thereof, e.g., as described herein, increases the expression of a target protein (e.g., HTT or MYB) in a reference cell or sample. In an embodiment, a compound of Formula (I) or (II) or a pharmaceutically acceptable salt thereof, e.g., as described herein, decreases the expression of a target protein (e.g., HTT or MYB) in a reference cell or sample. The effect of an exemplary compound of Formula (I) or (II) on protein abundance may be measured using a standard assay for measuring protein abundance, such as the HiBit-assay system (Promega). In this assay, percent response for each respective cell line may be as calculated at each compound concentration as follows: % response=100*(S−PC)/(NC−PC). For the normalized response at each concentration, a four-parameter logistical regression may be fit to the data and the response may be interpolated at the 50% value to determine a concentration for protein abundance at 50% (IC50) an untreated control. In an embodiment, a compound of Formula (I) or (II) or a pharmaceutically acceptable salt thereof, e.g., as described herein, has a protein abundance response less than 100 nM. In an embodiment, a compound of Formula (I) or (II) or a pharmaceutically acceptable salt thereof, e.g., as described herein, has a protein abundance response between 100-1000 nM. In an embodiment, a compound of Formula (I) or (II) or a pharmaceutically acceptable salt thereof, e.g., as described herein, has a protein abundance response greater than 1000 nM. In an embodiment, a compound of Formula (I) or (II) or a pharmaceutically acceptable salt thereof, e.g., as described herein, has a protein abundance response greater than 10 uM. In an embodiment, a compound of Formula (I) or (II) or a pharmaceutically acceptable salt thereof, e.g., as described herein, modulates the protein abundance of a target protein by about 1%, 5%, 10%, 15%, 20%, 25%, 30%, 35%, 40%, 45%, 50%, 55%, 60%, 65%, 70%, 75%, 80%, 85%, 90%, 95%, 99% or more, e.g., compared with a reference compound.

K562 cells = assay: Cell Titer Glo 2.0 cell viability assay, K562; assay type: cell-based; settings: Homo sapiens, 72 hours incubation
Description: Compounds described herein were screened for toxicity in K562 (human chronic myelogenous leukemia) and SH-SY5Y (human neuroblastoma) cells using a Cell Titer Glo 2.0 assay.
• Promega CellTiter-Glo® 2.0 Cell Viability Assay (cat #G9241) • Corning 384-well TC-treated microplates (cat #3570)
Cells were plated at 500 cells/well (K562 cells) in 45 μL of IMDM supplemented with 10% FBS in a 384-well opaque plate. Wells containing only medium were used as a blank control. Test compounds (e.g., compounds of Formula (I) or (II)) were first serially diluted in DMSO then diluted 1:100 with EIDM+10% FBS. The final concentration of DMSO was 0.1% in each well. The cells were incubated for 72 hours at 37° C. and 5% CO2 before assaying with Cell Titer Glo 2.0 reagent.

[1] = Tables 4A/4B, canonical junction qPCR panel, read-out: MYB (IC50, decrease in CJ mRNA, gene panel)
[2] = 24 h, A673 or K562 cells, 24 hours compound treatment, RT-qPCR
[3] = 24 h, A673 or K562 cells, 24 hours compound treatment, RT-qPCR, read-out: MYB CJ (IC50, decrease in canonical junction mRNA)

SMILES	IC50 (MYB mRNA; [1])	IC50 (HTT)	GI50 (K562 cells)	IC50 (MYB mRNA; [3])	AC50 (MYB mRNA; [2])
Cc1cn2nc(NC(=O)c3ccc(C4CCNCC4)c4cc(C)oc34)cc(C)c2n1 [Compound 118]	0.1 to 1 µM	0.1 to 1 µM	0.1 to 1 µM	–	–
Cc1cn2nc(NC(=O)c3ccc(C4CCNCC4)c4ccoc34)cc(C)c2n1 [Compound 119]	1 to 10 µM	1 to 10 µM	1 to 10 µM	1 to 10 µM	1 to 10 µM
Cc1cn2cc(NC(=O)c3ccc(N4CCNCC4)c4nc(C)oc34)cc(F)c2n1 [Compound 140]	1 to 10 µM	1 to 10 µM	1 to 10 µM	–	–
Cc1cn2cc(NC(=O)c3ccc(N4CCNCC4)c4oc(C)nc34)cc(F)c2n1 [Compound 141]	< 0.1 µM	0.1 to 1 µM	0.1 to 1 µM	< 0.1 µM	< 0.1 µM
Cc1cn2cc(NC(=O)c3ccc(N4CCNCC4)c4cc(C)oc34)cc(F)c2n1 [Compound 142]	0.1 to 1 µM	0.1 to 1 µM	0.1 to 1 µM	0.1 to 1 µM	0.1 to 1 µM
Cc1cn2cc(NC(=O)c3ccc(N4CCNCC4)c4cn(C)nc34)cc(F)c2n1 [Compound 143, N-{8-fluoro-2-methylimidazo[1,2-a]pyridin-6-yl}-2-methyl-4-(piperazin-1-yl) indazole-7-carboxamide]	< 0.1 µM	< 0.1 µM	0.1 to 1 µM	–	–
Cc1cn2cc(NC(=O)c3ccc(C4CCNCC4)c4cc(C)oc34)cc(F)c2n1 [Compound 145]	0.1 to 1 µM	1 to 10 µM	–	0.1 to 1 µM	0.1 to 1 µM
Cc1cn2nc(NC(=O)c3ccc(N4CCNCC4)c4cc(C)oc34)cc(C)c2n1 [Compound 148]	1 to 10 µM	1 to 10 µM	1 to 10 µM	1 to 10 µM	1 to 10 µM
Cc1cn2cc(NC(=O)c3ccc(C4CCNCC4)c4ccoc34)cc(F)c2n1 [Compound 149]	0.1 to 1 µM	1 to 10 µM	0.1 to 1 µM	0.1 to 1 µM	0.1 to 1 µM
Cc1cn2cc(NC(=O)c3ccc(N4CCN(C)CC4)c4cc(C)oc34)cc(F)c2n1 [Compound 189]	0.1 to 1 µM	> 10 µM	0.1 to 1 µM	0.1 to 1 µM	0.1 to 1 µM

Now from value to compound, other results behind:

IC50 (MYB mRNA; [1])	IC50 (HTT)	GI50 (K562 cells)	IC50 (MYB mRNA; [3])	SMILES	AC50 (MYB mRNA; [2])
< 0.1 µM	0.1 to 1 µM	0.1 to 1 µM	< 0.1 µM	Cc1cn2cc(NC(=O)c3ccc(N4CCNC(C)C4)c4cc(C)oc34)cc(F)c2n1 (stereo not shown) [Compound 190]	< 0.1 µM
0.1 to 1 µM	–	0.1 to 1 µM	0.1 to 1 µM	Cc1cn2cc(NC(=O)c3ccc(N4CCN(C)C(C)C4)c4cc(C)oc34)cc(F)c2n1 (stereo not shown) [Compound 191]	0.1 to 1 µM
0.1 to 1 µM	1 to 10 µM	0.1 to 1 µM	0.1 to 1 µM	CCC1CN(c2ccc(C(=O)Nc3cc(F)c4nc(C)cn4c3)c3oc(C)cc23)CCN1 (stereo not shown) [Compound 192]	0.1 to 1 µM
0.1 to 1 µM	1 to 10 µM	0.1 to 1 µM	0.1 to 1 µM	Cc1cn2cc(NC(=O)c3ccc(N4CCNC(C)(C)C4)c4cc(C)oc34)cc(F)c2n1 [Compound 193]	0.1 to 1 µM
0.1 to 1 µM	1 to 10 µM	0.1 to 1 µM	–	Cc1cn2cc(NC(=O)c3ccc(N4CCNC5(CC5)C4)c4cc(C)oc34)cc(F)c2n1 [Compound 194]	–
0.1 to 1 µM	> 10 µM	0.1 to 1 µM	0.1 to 1 µM	Cc1cn2cc(NC(=O)c3ccc(N4CC(C)(C)NC(C)(C)C4)c4cc(C)oc34)cc(F)c2n1 [Compound 195]	1 to 10 µM
0.1 to 1 µM	0.1 to 1 µM	< 0.1 µM	–	CCNC1CCN(c2ccc(C(=O)Nc3cc(F)c4nc(C)cn4c3)c3oc(C)cc23)CC1 [Compound 196]	–
1 to 10 µM	> 10 µM	0.1 to 1 µM	1 to 10 µM	Cc1cn2cc(NC(=O)c3ccc(N4CCC(NC(C)(C)C)CC4)c4cc(C)oc34)cc(F)c2n1 [Compound 197]	1 to 10 µM
< 0.1 µM	1 to 10 µM	< 0.1 µM	–	CC1=CC2C(N3CCC(N(C)C)CC3)=CC=C(C(=O)Nc3cc(F)c4nc(C)cn4c3)C2O1 (stereo not shown) [Compound 198]	–
0.1 to 1 µM	1 to 10 µM	0.1 to 1 µM	0.1 to 1 µM	Cc1cn2cc(NC(=O)c3ccc(N4CCN5CCCC5C4)c4cc(C)oc34)cc(F)c2n1 (stereo not shown) [Compound 199]	0.1 to 1 µM
< 0.1 µM	0.1 to 1 µM	0.1 to 1 µM	–	Cc1cn2cc(NC(=O)c3ccc(C4CCNCC4)c4cn(C)nc34)cc(F)c2n1 [Compound 208]	–
> 10 µM	> 10 µM	0.1 to 1 µM	> 10 µM	Cc1cc2c(N3CCNCC3)ccc(C(=O)Nc3cc(F)c4cn(C)nc4c3)c2o1 [Compound 217]	> 10 µM
–	1 to 10 µM	0.1 to 1 µM	1 to 10 µM	CCn1cc2c(N3CC[C@@H](NC)C3)ccc(C(=O)Nc3cc(Cl)c4nc(C)cn4c3)c2n1 [Compound 556, N-{8-chloro-2-methylimidazo[1,2-a]pyridin-6-yl}-2-ethyl-4-[(3R)-3-(methylamino)pyrrolidin-1-yl]indazole-7-carboxamide]	> 10 µM
–	0.1 to 1 µM	< 0.1 µM	< 0.1 µM	CCn1cc2c(N3CCC(N)(CC)CC3)cc(F)c(C(=O)Nc3cc(F)c4nc(C)cn4c3)c2n1 [Compound 557, 4-(4-amino-4-ethylpiperidin-1-yl)-2-ethyl-6-fluoro-N-{8-fluoro-2-methylimidazo[1,2-a]pyridin-6-yl}indazole-7-carboxamide]	< 0.1 µM
–	0.1 to 1 µM	< 0.1 µM	< 0.1 µM	CCn1cc2c(N3CCC(N[C@H]4C[C@@H](O)C4)CC3)ccc(C(=O)Nc3cc(F)c4nc(C)cn4c3)c2n1 [Compound 559, 2-ethyl-N-{8-fluoro-2-methylimidazo[1,2-a]pyridin-6-yl}-4-(4-{[(1s,3s)-3-hydroxycyclobutyl]amino}piperidin-1-yl) indazole-7-carboxamide]	< 0.1 µM
